Experimental data published in publication PMC7261835, “New Brilliant Blue G Derivative as Pharmacological Tool in Retinal Surgery” (Frontiers in Pharmacology, 2020).

Legend:
[1] = system: purinergic ionotropic P2X7 receptor; set-up: method as in Bartlett et al., 2014; details: ref Bartlett et al., 2014; cited from earlier work
[2] = Ex vivo model of vitreoretinal surgery, dye quantification in ILM by HPLC; set-up: species or system swine; details: porcine eye ex vivo, 40 µl, 30 s
Text: (§1) Ex vivo model of vitreoretinal surgery has been previously reported for evaluation of indocyanine green ILM staining properties ([Nakamura et al., 2003]). We carried out on swine eyes the same procedure previously reported on primates, with slight modifications. The following formulations have been tested in the ex vivo model of vitreoretinal surgery: Brilliant PeelTM (0.025% Brilliant Blue G BBG; Fluoron, Ulm, Germany); ILM-BlueTM (0.025% Brilliant Blue G; Dutch Ophthalmic Research Center (International) […], Italy); View-ILM® (0.03% methyl-Brilliant Blue […], Ponte San Nicolò-Padova, Italy); PBB® (0.05% Pure benzyl-Brilliant Blue G; Alfa-Instruments, Casoria, Italy). […] The levels of the dye molecules were quantified by means of HPLC analysis. […] The dried residue was reconstituted in 100 μl of mobile phase by vortexing for 120 s, filtered again on 0.45 μm filters, and, finally, 10-20 μl aliquots were injected into the chromatographic apparatus (each sample was analyzed in triplicate). […] BBG, Me-BBG, and PBB® were analyzed using three different isocratic ternary mobile phases consisting of (A) acetonitrile, (B) methanol, and (C) triethylamine 0.3% (v/v) in water (pH adjusted to 3.0 with trifluoroacetic acid) with different proportions (A:B:C) as follows: BBG 49:5:46 (v/v/v); Me-BBG 54:5:41 (v/v/v); PBB® 62:5:33 (v/v/v). […]

[3] = system: proteins (fibronectin proteolytic fragment 45 kDa, E. coli beta-galactosidase, bovine serum albumin, chicken ovalbumin, equine cytochrome C); assay: Dye protein affinity assay: SDS-PAGE staining intensity, densitometry; assay type: binding; details: SDS-page protein bands, dyes 0.025% in fixative; compared to BBG and Me-BBG; p < 0.05
Method: In order to have the same dye/protein molar ratio for dye protein affinity assay, a set of molecular weight standards was obtained by mixing 430 nmol of the following proteins: i. fibronectin proteolytic fragment 45 kDa; ii. E. coli beta-galactosidase 116.3 kDa; iii. bovine serum albumin 66.5 kDa; iv. chicken ovalbumin 42.7 kDa; v. equine cytochrome C 12.3 kDa. Polyacrylamide gel electrophoresis was carried out loading the molecular weight standard in a 9% precast gels (Biorad), as triplicates on separate lanes. Gel electrophoresis was carried out at 20V for 60–90 min in denaturing conditions. After runs, each lane was cut and soaked overnight in a different staining solution, consisting of dyes dissolved at 0.025% in gel fixative solution (40% methanol, 20% acetic acid). Thereafter, gel lanes were decolored in the fixative solution without dyes, until the background stain reached the minimum level compared to stained protein bands. Images were collected with a scanner at 300 dpi, 16M colors. Densitometric analysis was done using the software ImageJ ([Rueden et al., 2017]). LogD values (pH 7.4) were calculated in silico using ACD/Labs software (version 11.1 2008, ACD Labs). […]

[4] = Ex vivo model of vitreoretinal surgery, dye quantification in retina by HPLC; set-up: species or system swine; details: porcine eye ex vivo, 40 µl of 0.05% PBB formulation, removed after 30 s, after ILM peeling
Text: as §1

fold increase of ILM dye levels compared to Me-BBG (View ILM) formulation ([2]; p < 0.05) [fold] | dye levels in the retina [4] [ng/mg] | SMILES | P2X7 receptor antagonism [1] | dye content in ILM compared to Brilliant Peel formulation (BBG) [2] | Protein binding quantified as staining intensity (% staining, % of control BBG) [3]
 |  | CCOc1ccc(Nc2ccc(/C(=C3C=C/C(=[N+](/CC)Cc4cccc(S(=O)(=O)[O-])c4)C=C/3C)c3ccc(N(CC)Cc4cccc(S(=O)(=O)O)c4)cc3C)cc2)cc1 [Entry 1, Brilliant Blue G] | potent selective non-competitive antagonist |  | 
6.0 | 52 | CCOc1ccc(N(Cc2ccccc2)c2ccc(C(=C3C=CC(=[N+](CC)Cc4cccc(S(=O)(=O)[O-])c4)C=C3C)c3ccc(N(CC)Cc4cccc(S(=O)(=O)O)c4)cc3C)cc2)cc1 [Entry 7, pure benzyl-Brilliant Blue G] |  | higher, even though not statistical significant | higher protein affinity (% staining) compared to BBG and Me-BBG
